biological target: Gastrin/cholecystokinin type B receptor (Cavia porcellus); assay: Displacement of [125I]CCK-OP radioligand from Cholecystokinin type B receptor of guinea pig cortical membranes

IC50 [µM] | Compound
> 10 | O=C(N[C@H]1C(=O)N(c2ccccc2)C[C@@H]1C(=O)O)c1ccc2ccccc2c1 [(3S,4R)-4-[(Naphthalene-2-carbonyl)-amino]-5-oxo-1-phenyl-pyrrolidine-3-carboxylic acid]
> 10 | O=C(N[C@@H]1C(=O)N(c2ccccc2F)C[C@@H]1C(=O)O)c1ccc2ccccc2c1 [(3S,4S)-1-(2-Fluoro-phenyl)-4-[(naphthalene-2-carbonyl)-amino]-5-oxo-pyrrolidine-3-carboxylic acid]
> 10 | O=C(N[C@@H]1C(=O)N(c2ccccc2F)C[C@@H]1C(=O)O)c1cnc2ccccc2c1 [(3S,4S)-1-(2-Fluoro-phenyl)-5-oxo-4-[(quinoline-3-carbonyl)-amino]-pyrrolidine-3-carboxylic acid]
> 10 | O=C(N[C@@H]1C(=O)N(c2ccccc2)C[C@@H]1C(=O)O)c1ccc2ccccc2c1 [(3S,4S)-4-[(Naphthalene-2-carbonyl)-amino]-5-oxo-1-phenyl-pyrrolidine-3-carboxylic acid]

From BindingDB's records for doi:10.1016/S0960-894X(00)80224-3 (1992)
